The values that follow come from US7973164B2, “Quinoline derivatives” (AstraZeneca AB, priority 2006, dated 2011).

The target in one assay is T1, PDGFRβ (Homo sapiens, UniProt P09619).
T1 construct: endogenous in cells; host or cells: MG63 osteosarcoma cells (ATCC)
Nature of the assay: Test (b) in vitro phospho-Tyr751 PDGFRβ ELISA assay in MG63 osteosarcoma cells. Format: cell-based. As to conditions: MG63 osteosarcoma cells stimulated with PDGFBB, read-out: IC50 versus phospho-Tyr751 formation in PDGFRβ. The protocol:
(b) In Vitro Phospho-Tyr751 PDGFRβ ELISA Assay
This assay uses a conventional ELISA method to determine the ability of test compounds to inhibit phosphorylation of tyrosine in PDGFRβ.
Aliquots (100 μl) of culture media were placed in the outer wells to minimise edge effects. The cells were incubated overnight at 37° C. with 7.5% CO2 to allow the cells to adhere to the wells.
Aliquots (3 μl) of each compound concentration were added to test medium (300 μl) to create a second dilution range. Aliquots (16 μl) of each resultant compound concentration were added to the cells in each well. “Maximum” control cells received a dilution of DMSO plus test medium only. “Minimum” control cells received a reference PDGFR inhibitor (16 μl). The cells were incubated for 90 minutes at 37° C. with 7.5% CO2.
The resultant cells were stimulated with PDGFBB using the following procedure. A lyophilised powder of PDGFBB, (Sigma-Aldrich; Catalogue No. P4306) was mixed with sterile water to provide a stock solution of 10 μg/ml of PDGFBB. […] Aliquots thereof (44 μl) were added to compound treated cells and to the “Maximum” control cells. The “Minimum” control cells received medium only. The cells were incubated at 37° C. with 7.5% CO2 for 5 minutes. […] The resultant tissue culture plates were shaken for 5 minutes at ambient temperature to ensure full lysis and then frozen at −20° C. until required.
Aliquots (50 μl) were added to each well and the plates were placed at 4° C. for 16 hours. The wells were washed 5 times (1 minute soak each time) with 300 μl per well of PBST. The wells were treated with 50 μl of 3% BSA in PBST at ambient temperature for 1 hour and subsequently washed twice with 300 μl per well of PBST.
The tissue culture plates with frozen cell lysate were allowed to warm to 0° C. Aliquots (50 μl) of the MG63 cell lysate were added to the ELISA plates. Each sample was duplicated on separate plates. The ELISA plates were agitated at ambient temperature for 2 hours. The wells were washed twice with 300 μl per well of PBST. […] Aliquots (50 μl) of the antibody solutions were added to each of the wells. The plates were agitated at ambient temperature for 1 hour. The plates were washed twice with 300 μl per well of PBST. […] Aliquots (50 μl) of the resultant dilution were added to each well and the plates were agitated at ambient temperature for 1 hour. The plates were washed 5 times with 300 μl per well of PBST. […] Aliquots (50 μl) of chemiluminescent substrate solution were added to each of the wells, the plates were agitated for 2 minutes and luminescence was read on a SpectraFluor Plus plate reader (Tecan UK Ltd., Reading, Berkshire, UK). Analysis for each of the compounds was completed by determining a ratio of the ‘phospho antibody’ plate reading to the ‘total antibody’ plate reading for each test sample and these ratios were plotted to determine the IC50 value of each test compound.

A further assay concerns the target T2, KDR (VEGFR2) (Homo sapiens, UniProt P35968).
T2 construct: phosphorylation of KDR expressed in human umbilical vein endothelial cells (HUVECs); host or cells: HUVECs
Nature of the assay: Test (c) in vitro phospho-KDR ELISA assay in HUVECs. The assay is classed as cell-based. The note with it: HUVECs stimulated with VEGF, read-out: IC50 versus phospho-tyrosine formation in KDR. The protocol: (c) In Vitro Phospho-KDR ELISA Assay
This assay uses a conventional ELISA method to determine the ability of test compounds to inhibit phosphorylation of tyrosine in KDR (VEGFR2).
The cells were incubated overnight at 37° C. with 7.5% CO2 to allow adherence to the well surface. […] The plates were incubated at 37° C. for 2.5 hours.
Test compounds were prepared as 10 mM stock solutions in DMSO and serially diluted with DMSO as required. Aliquots (3 μl) of each concentration of test compound were diluted with ‘serum fiee medium’ (300 μl). Aliquots (50 μl) of each resultant compound concentration were added to the cells in each well. […] The cells were incubated for 90 minutes at 37° C. with 7.5% CO2.
The resultant cells were stimulated with VEGF using the following procedure. A lyopliilised powder of VEGF (Sigma-Aldrich; Catalogue No. V7259) was mixed with PBS containing 0.1% filter-sterilised BSA (0.1% BSA/PBS) to provide a stock solution of 10 μg/ml of VEGF. A dilution of this stock solution into ‘serum free medium’ provided a 1000 ng/ml VEGF solution. Aliquots thereof (50 μl) were added to all wells. The cells were incubated at 37° C. with 7.5% CO2 for 5 minutes. […] The resultant tissue culture plates were shaken for 5 minutes at ambient temperature to ensure full lysis before being frozen on dry-ice and stored at −20° C. until required.
The antibody was diluted in PBS to a concentration of 8 μg/ml, aliquots (100 μl) were added to each well and the plates were stored at ambient temperature for 16 hours. The wells were washed 3 times (1 minute soak each time) with 300 μl per well of PBST. The wells were treated with PBS containing 1% filter-sterilised BSA (1% BSA/PBS; 200 μl) at ambient temperature for 1 hour and subsequently washed 3 times with 300 μl per well of PBST.
The tissue culture plates with frozen cell lysate were allowed to warm to 0° C. Aliquots (100 μl) of the HUVEC cell lysate were added and the ELISA plates were agitated at ambient temperature for 3 hours. The wells were washed 3 times with 300 μl per well of PBST. […] Aliquots (100 μl) of the resultant dilution were added to each well and the plates were agitated at ambient temperature for 2 hours. The plates were washed 4 times with 300 μl per well of PBST. […] Aliquots (50 μl) of chemiluminescent substrate solution were added to each of the wells, the plates were agitated for 2 minutes and luminescence was read on a SpectraFluor is Plus plate reader (Tecan UK Ltd.). The resultant data were analysed to determine the IC50 value of each test compound.

For the next assay, the system named is PDGF receptor kinase. The note with it: literature (Nature Reviews 2002; Cancer Research 1996); cited from earlier work.
Assay [1] relates to human glioblastoma lines U343 and U87. The note with it: U343 and U87 injected into the brains of nude mice; Cancer Research 2000; cited from earlier work.
Assay [2] relates to dermatofibrosarcoma protruberans cell cultures. As to conditions: Cancer Research 2001; cited from earlier work.

Molecules are shown by their SMILES.

T1 sequence (P09619 33-1106): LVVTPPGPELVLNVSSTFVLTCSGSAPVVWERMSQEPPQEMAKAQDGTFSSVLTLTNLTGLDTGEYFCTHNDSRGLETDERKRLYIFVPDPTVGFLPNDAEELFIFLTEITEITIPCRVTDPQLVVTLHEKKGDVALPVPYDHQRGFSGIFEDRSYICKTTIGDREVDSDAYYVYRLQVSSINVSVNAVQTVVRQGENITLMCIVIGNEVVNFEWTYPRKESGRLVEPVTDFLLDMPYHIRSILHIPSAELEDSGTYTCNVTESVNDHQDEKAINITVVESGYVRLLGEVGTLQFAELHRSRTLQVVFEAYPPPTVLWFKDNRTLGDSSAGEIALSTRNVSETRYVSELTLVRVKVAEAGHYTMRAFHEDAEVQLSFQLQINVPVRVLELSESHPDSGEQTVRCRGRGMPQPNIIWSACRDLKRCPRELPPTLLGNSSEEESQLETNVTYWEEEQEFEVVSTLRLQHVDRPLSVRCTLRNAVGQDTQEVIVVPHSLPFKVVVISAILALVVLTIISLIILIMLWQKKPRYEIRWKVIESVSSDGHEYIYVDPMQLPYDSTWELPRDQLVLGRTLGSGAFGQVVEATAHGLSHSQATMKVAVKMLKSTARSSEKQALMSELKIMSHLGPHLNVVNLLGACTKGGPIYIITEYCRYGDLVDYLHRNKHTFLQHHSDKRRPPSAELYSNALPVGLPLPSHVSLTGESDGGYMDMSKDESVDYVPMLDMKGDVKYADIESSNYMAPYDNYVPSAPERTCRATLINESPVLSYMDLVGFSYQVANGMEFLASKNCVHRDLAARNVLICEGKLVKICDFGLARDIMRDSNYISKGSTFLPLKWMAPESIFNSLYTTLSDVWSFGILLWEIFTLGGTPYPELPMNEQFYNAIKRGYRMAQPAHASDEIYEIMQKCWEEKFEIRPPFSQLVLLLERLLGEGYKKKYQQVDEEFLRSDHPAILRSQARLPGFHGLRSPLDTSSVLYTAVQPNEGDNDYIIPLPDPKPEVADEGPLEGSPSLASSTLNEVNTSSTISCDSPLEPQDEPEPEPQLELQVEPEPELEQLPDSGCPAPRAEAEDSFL
T2 sequence (P35968 20-1356): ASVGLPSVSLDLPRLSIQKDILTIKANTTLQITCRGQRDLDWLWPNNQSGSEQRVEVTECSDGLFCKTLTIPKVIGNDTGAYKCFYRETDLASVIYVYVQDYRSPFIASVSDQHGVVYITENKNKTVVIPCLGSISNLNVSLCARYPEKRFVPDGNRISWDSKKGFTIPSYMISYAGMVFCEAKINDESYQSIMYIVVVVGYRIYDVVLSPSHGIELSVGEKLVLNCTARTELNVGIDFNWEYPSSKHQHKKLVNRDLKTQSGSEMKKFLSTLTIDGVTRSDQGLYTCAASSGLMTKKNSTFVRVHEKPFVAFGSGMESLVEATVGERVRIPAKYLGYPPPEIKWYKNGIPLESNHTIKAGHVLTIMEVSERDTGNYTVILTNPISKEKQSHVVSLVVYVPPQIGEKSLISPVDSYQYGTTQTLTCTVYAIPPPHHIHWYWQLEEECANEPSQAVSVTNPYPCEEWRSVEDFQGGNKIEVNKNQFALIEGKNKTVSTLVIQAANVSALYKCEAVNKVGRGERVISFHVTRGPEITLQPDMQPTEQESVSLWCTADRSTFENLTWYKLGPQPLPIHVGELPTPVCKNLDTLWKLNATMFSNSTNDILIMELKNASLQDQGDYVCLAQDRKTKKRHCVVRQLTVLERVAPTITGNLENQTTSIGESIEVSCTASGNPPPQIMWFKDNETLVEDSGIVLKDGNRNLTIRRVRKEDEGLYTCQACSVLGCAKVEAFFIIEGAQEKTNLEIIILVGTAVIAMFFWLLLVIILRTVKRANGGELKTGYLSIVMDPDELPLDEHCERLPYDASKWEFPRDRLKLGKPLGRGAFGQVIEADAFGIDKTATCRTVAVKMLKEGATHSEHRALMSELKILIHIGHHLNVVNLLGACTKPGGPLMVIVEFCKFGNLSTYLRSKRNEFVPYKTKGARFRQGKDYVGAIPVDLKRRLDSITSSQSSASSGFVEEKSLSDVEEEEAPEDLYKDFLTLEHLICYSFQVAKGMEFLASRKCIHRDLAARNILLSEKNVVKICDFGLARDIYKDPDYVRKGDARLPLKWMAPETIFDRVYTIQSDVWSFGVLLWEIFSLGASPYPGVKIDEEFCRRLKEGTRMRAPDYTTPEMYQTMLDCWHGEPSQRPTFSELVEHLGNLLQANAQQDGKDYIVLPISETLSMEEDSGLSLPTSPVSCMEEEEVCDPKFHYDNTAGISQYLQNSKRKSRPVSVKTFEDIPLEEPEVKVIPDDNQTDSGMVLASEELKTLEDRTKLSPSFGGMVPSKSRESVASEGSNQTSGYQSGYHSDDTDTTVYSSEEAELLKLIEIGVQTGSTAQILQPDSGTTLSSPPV

For `CCn1cc(NC(=O)Cc2ccc(Oc3ccnc4ccccc34)cc2OC)cn1` [N-(1-ethyl-1H-pyrazol-4-yl)-2-(2-methoxy-4-quinolin-4-yloxyphenyl)acetamide], the IC50 was roughly 20 nM on PDGFRβ and greater than 1000 nM at KDR (VEGFR2).
On the same counts, the results for `CCn1cc(NC(=O)Cc2ccc(Oc3ccnc4cc(OC)c(C#N)cc34)cc2OC)cn1` [N-(1-ethyl-1H-pyrazol-4-yl)-2-[4-(6-cyano-7-methoxyquinolin-4-yloxy)-2-methoxyphenyl]acetamide] are roughly 2 nM and roughly 750 nM.
For `CCn1cc(NC(=O)Cc2ccc(Oc3ccnc4cc(OC)c(C#N)cc34)cc2)cn1` [N-(1-ethyl-1H-pyrazol-4-yl)-2-[4-(6-cyano-7-methoxyquinolin-4-yloxy)phenyl]acetamide] the same measures were roughly 2 nM and roughly 200 nM.
`CCn1cc(NC(=O)Cc2ccc(Oc3ccnc4cc(OC)c(C(=O)N(C)C)cc34)cc2)cn1` [N-(1-ethyl-1H-pyrazol-4-yl)-2-{4-[6-(N,N-dimethylcarbamoyl)-7-methoxyquinolin-4-yloxy]phenyl}acetamide]: the IC50 is roughly 3 nM on PDGFRβ and roughly 700 nM at KDR (VEGFR2).
As for `COc1cc(Oc2ccnc3ccc(F)cc23)ccc1CC(=O)Nc1n[nH]c(C)c1C` [N-(4,5-dimethyl-1H-pyrazol-3-yl)-2-[4-(6-fluoroquinolin-4-yloxy)-2-methoxyphenyl]acetamide], the IC50 on PDGFRβ was roughly 10 nM; at KDR (VEGFR2) it was greater than 2000 nM.
On to `CNC(=O)c1cc2c(Oc3ccc(CC(=O)Nc4noc(C)c4C)c(OC)c3)ccnc2cc1OC` [N-(4,5-dimethylisoxazol-3-yl)-2-{2-methoxy-4-[7-methoxy-6-(N-methylcarbamoyl)quinolin-4-yloxy]phenyl}acetamide], for which the IC50 was roughly 5 nM at PDGFRβ and roughly 1000 nM at KDR (VEGFR2).
For `CCc1c[nH]nc1NC(=O)Cc1ccc(Oc2ccnc3cc(OC)c(OC)cc23)cc1OC` [N-(4-ethyl-1H-pyrazol-3-yl)-2-[4-(6,7-dimethoxyquinolin-4-yloxy)-2-methoxyphenyl]acetamide] the same measures were roughly 5 nM and greater than 2000 nM.
On the same counts, the results for `COc1cc(Oc2ccnc3ccc(F)cc23)ccc1CC(=O)Nc1cc(C)[nH]n1` [N-(5-methyl-1H-pyrazol-3-yl)-2-[4-(6-fluoroquinolin-4-yloxy)-2-methoxyphenyl]acetamide] are roughly 10 nM and greater than 2000 nM.
As for `Cc1ccc(NC(=O)c2ccc(CN3CCN(C)CC3)cc2)cc1Nc1nccc(-c2cccnc2)n1` [imatinib], the “inhibition of PDGF receptor kinase activity” value in the assay with PDGF receptor kinase is recorded as “shown to inhibit PDGF receptor kinase activity”. The “inhibition of growth of glioblastoma tumours” value in assay [1] is given as “inhibits the growth of glioblastoma tumours”. Besides, in assay [2], the “inhibition of in vivo growth of dermatofibrosarcoma protruberans cell cultures” value is recorded as “inhibits the in vivo growth of dermatofibrosarcoma protruberans cell cultures”.
